According to US12122783B2, “Stable salt of 5,10-methylene-(6R)-tetrahydrofolic acid” (MERCK & CIE, priority 2013, dated 2024):
Counter-ions that a name gives are not always drawn.

What was measured:
[1] = Comparative long-term stability of sulfate salt, content by HPLC; assay type: physicochemical
Method: In order to compare the long-term stabilities of (6R)-5,10-CH2-THF hemisulfate salt, the compounds of the invention, to the long-term stabilities of (6R)-5,10-CH2-THF sulfate salt prepared according to EP 0 537 492 B1, stability data for (6R)-5,10-CH2-THF sulfate salt has been generated at various temperatures and humidities. • (a) Stability of (6R)-5,10-CH2-THF sulfate
(6R)-5,10-CH2-THF sulfate salt was prepared according to literature procedures (EP 0 537 492 B1) and stored for 15 month at −20° C. Subsequently, samples of the product were stored at 5° C. resp. at 25° C. and 60% relative humidity resp. at 40° C. and 75% relative humidity. The content of (6R)-5,10-CH2-THF sulfate salt remaining in the sample was measured by HPLC at periodic intervals. The content of (6R)-5,10-CH2-THF sulfate was compared to the initial value at the time of preparation (% rel.).

[2] = Long-term stability of hemisulfate salt stored in air, content by HPLC; assay type: physicochemical; details: for (6R)-5,10-CH2-THF hemisulfate remaining: solid, air, 25 °C/60% relative humidity
Method: (§1) In order to determine the long-term stabilities of (6R)-5,10-CH2-THF hemisulfate salt, the compounds of the invention were stored in air at 25° C. and at 60% relative humidity. The content of (6R)-5,10-CH2-THF hemisulfate salt remaining was measured by HPLC at periodic intervals and is given by comparison with the initial value (% rel.).

[3] = Suspension equilibration stability in solvents and mixtures; assay type: physicochemical
Description: • (a) Suspension equilibration of (6R)-5,10-CH2-THF hemisulfate salt as starting material at temperatures other than room temperature in a variety of solvents and mixture are summarized in Table 10: […]

dogs = details: dog, in vivo, 50 mg/kg/day
[4] = Phase I/II study ISO-CC-002, pharmacokinetics/pharmacodynamics versus Levoleucovorin in tumor tissue, adjacent mucosa and blood plasma; assay type: in vivo; details: colon cancer patients
Method: (b) In a single-blinded, randomized phase I/II study (ISO-CC-002) performed on 32 patients diagnosed with colon cancer the pharmacokinetic and pharmacodynamic properties of (6R)-5,10-CH2-THF hemisulfate compared to Levoleucovorin in tumor tissue, adjacent mucosa and blood plasma were investigated. The study was performed at the Sahlgrenska University Hospital in Göteborg, Sweden. […] The concentrations of methylenetetrahydrofolate and tetrahydrofolate in both tumor and adjacent mucosa were also much higher after administration of (6R)-5,10-CH2-THF hemisulfate than those obtained after administration of Levoleucovorin.

[5] = TG-FTIR thermogram under N2 flow; assay type: physicochemical; details: 10 K min^−1
Method: TG-FTIR (Netzsch Thermo-Microbalance TG 209 with Bruker FT-IR Spectrometer IFS 28): Al crucible (with microhole); N2 atmosphere; 10 K min^−1 heating rate; 25° C. to 300° C. range.
• (a) The FT Raman spectrum of (6R)-5,10-CH2-THF hemisulfate salt, recorded using a nominal laser power level of 300 mW and 64 scans is shown in FIG. 1. • (b) The corresponding powder X-ray diffractogram, recorded in transmission mode, is shown in FIG. 2. • (c) The TG-FTIR thermogram of (6R)-5,10-CH2-THF hemisulfate salt is shown in FIG. 3. It was carried out under N2 flow (to avoid oxidative degradation). […] Prior to the first heating scan, the sample was equilibrated for three minutes under gaseous nitrogen flow and lost 0.6 wt.-% of its mass during that time. This is consistent with the water content observed in the TG-FTIR thermogram (see FIG. 3) and confirms that this water is loosely bound. The sample was subsequently heated in a closed gold crucible to 254° C. at 10 K min^−1, quench cooled to −50° C., and heated a second time at 10 K min^−1. […] No other thermal events were observed up to 250° C. • (e) The IR spectrum was recorded in a pressed KBr pellet and the characteristic absorption bands are shown in Table 3. • (f) The ^1H NMR spectrum of (6R)-5,10-CH2-THF hemisulfate salt was recorded in DMSO-d6 and the chemical shifts (d) in ppm are shown in Table 8.

patients = assay: Clinical safety data in patients; assay type: in vivo; details: doses of up to 200 mg/m^2
[6] = Stability in 85% ethanol at room temperature (XRPD); assay type: physicochemical; details: 85% EtOH, stirred 5 h, filtered and dried
Method: (§2) Powder X-Ray Diffraction (Bruker D8 Advance): Copper Kα radiation, 40 kV/40 mA, LynxEye detector, Bragg-Brentano reflection geometry, 0.02° 2θ step size, 37 s step time, 2.5-50° 2θ range. Powder samples were measured in 0.1-mm or 0.5-mm deep silicon single-crystal sample holders. No special treatment was used in preparing the samples other than the application of slight pressure to get a flat surface. An ambient air atmosphere was used for all measurements, and the samples were rotated during the measurement. Absent any information to the contrary X-Ray Diffraction data is shown as reflection data.
• (b) Stability in 85% ethanol at room temperature
(§3) (6R)-5,10-CH2-THF hemisulfate salt (3.01 g) was dispersed in 100 ml 85% EtOH at room temperature and stirred for 5 h, then filtered and dried at 30° C. and 8 mbar for 12 hours (over night).

rats = details: rat, in vivo, 100 mg/kg/day
[7] = Stability at high temperature/low pressure (XRPD); assay type: physicochemical; details: drying chamber 65 °C, 8 mbar, 21 h
Method: as §2, §3
(6R)-5,10-CH2-THF hemisulfate salt (2.17 g) was placed in a drying chamber at 65° C. and 8 mbar for 21 h.

[8] = Long-term stability of lyophilisates stored in air, content by HPLC; assay type: physicochemical; details: room temperature, pharmaceutical composition such as a lyophilisate
Method: as §1, with “salt as pharmaceutical compositions, more specifically as lyophilisates (as prepared according to e.g. Example 5), lyophilisates” for “salt, the compounds of the invention”

Nc1nc2c(c(=O)[nH]1)N1CN(c3ccc(C(=O)N[C@@H](CCC(=O)O)C(=O)O)cc3)C[C@H]1CN2 [(6R)-5,10-CH2-THF sulfate, 5,10-methylene-(6R)-tetrahydrofolic acid]
(6R)-5,10-CH2-THF sulfate remaining ([1]; 5 °C, 0 months, after 15 months at −20 °C, relative to value at preparation): 98.7 % rel. | (6R)-5,10-CH2-THF sulfate remaining ([1]; 5 °C, 6 months, after 15 months at −20 °C, relative to value at preparation): 97.3 % rel. | (6R)-5,10-CH2-THF sulfate remaining ([1]; 25 °C/60% rh, 0 months, after 15 months at −20 °C, relative to value at preparation): 98.7 % rel. | (6R)-5,10-CH2-THF sulfate remaining ([1]; 25 °C/60% rh, 6 months, after 15 months at −20 °C, relative to value at preparation): 95.5 % rel. | (6R)-5,10-CH2-THF sulfate remaining ([1]; 40 °C/75% rh, 0 months, after 15 months at −20 °C, relative to value at preparation): 98.7 % rel. | (6R)-5,10-CH2-THF sulfate remaining ([1]; 40 °C/75% rh, 6 months, after 15 months at −20 °C, relative to value at preparation): 95.0 % rel. | (6R)-5,10-CH2-THF sulfate remaining ([1]; −20 °C, 0 months): 100.0 % rel. | (6R)-5,10-CH2-THF sulfate remaining ([1]; −20 °C, 15 months): 98.7 % rel.

Nc1nc2c(c(=O)[nH]1)N1CN(c3ccc(C(=O)N[C@@H](CCC(=O)O)C(=O)O)cc3)C[C@H]1CN2 [(6R)-5,10-CH2-THF hemisulfate salt, 5,10-methylene-(6R)-tetrahydrofolic acid]
Stability over a long period of time (conclusion from Table 11) ([2]; room temperature, pure compound): highly stable | (6R)-5,10-CH2-THF hemisulfate remaining ([2]; 0 months): 100.0 % rel. | (6R)-5,10-CH2-THF hemisulfate remaining ([2]; 3 months, listed as (6R)-5,10-CH2-THF hemisulfate (batch 1)): 99.7 % rel. | (6R)-5,10-CH2-THF hemisulfate remaining ([2]; 3 months, listed as (6R)-5,10-CH2-THF hemisulfate (batch 2)): 99.9 % rel. | (6R)-5,10-CH2-THF hemisulfate remaining ([2]; 3 months, listed as (6R)-5,10-CH2-THF hemisulfate (batch 3)): 99.5 % rel. | (6R)-5,10-CH2-THF hemisulfate remaining ([2]; 6 months): 99.5 % rel. | (6R)-5,10-CH2-THF hemisulfate remaining ([2]; 6 months, listed as (6R)-5,10-CH2-THF hemisulfate (batch 2)): 99.9 % rel. | (6R)-5,10-CH2-THF hemisulfate remaining ([2]; 9 months, listed as (6R)-5,10-CH2-THF hemisulfate (batch 1)): 99.6 % rel. | (6R)-5,10-CH2-THF hemisulfate remaining ([2]; 9 months, listed as (6R)-5,10-CH2-THF hemisulfate (batch 2)): 100.0 % rel. | (6R)-5,10-CH2-THF hemisulfate remaining ([2]; 9 months, listed as (6R)-5,10-CH2-THF hemisulfate (batch 3)): 99.4 % rel. | (6R)-5,10-CH2-THF hemisulfate remaining ([2]; 12 months, listed as (6R)-5,10-CH2-THF hemisulfate (batch 1)): 99.2 % rel. | (6R)-5,10-CH2-THF hemisulfate remaining ([2]; 12 months, listed as (6R)-5,10-CH2-THF hemisulfate (batch 2)): 99.7 % rel. | (6R)-5,10-CH2-THF hemisulfate remaining ([2]; 12 months, listed as (6R)-5,10-CH2-THF hemisulfate (batch 3)): 99.1 % rel. | (6R)-5,10-CH2-THF hemisulfate remaining ([2]; 18 months, listed as (6R)-5,10-CH2-THF hemisulfate (batch 1)): 99.2 % rel. | (6R)-5,10-CH2-THF hemisulfate remaining ([2]; 18 months, listed as (6R)-5,10-CH2-THF hemisulfate (batch 2)): 99.4 % rel. | (6R)-5,10-CH2-THF hemisulfate remaining ([2]; 18 months, listed as (6R)-5,10-CH2-THF hemisulfate (batch 3)): 99.0 % rel. | (6R)-5,10-CH2-THF hemisulfate remaining ([2]; 24 months, listed as (6R)-5,10-CH2-THF hemisulfate (batch 1)): 99.4 % rel. | (6R)-5,10-CH2-THF hemisulfate remaining ([2]; 24 months, listed as (6R)-5,10-CH2-THF hemisulfate (batch 2)): 99.4 % rel. | (6R)-5,10-CH2-THF hemisulfate remaining ([2]; 24 months, listed as (6R)-5,10-CH2-THF hemisulfate (batch 3)): 99.0 % rel. | (6R)-5,10-CH2-THF hemisulfate remaining ([2]; 36 months, listed as (6R)-5,10-CH2-THF hemisulfate (batch 1)): 98.5 % rel. | (6R)-5,10-CH2-THF hemisulfate remaining ([2]; 36 months, listed as (6R)-5,10-CH2-THF hemisulfate (batch 2)): 99.0 % rel. | Observation (suspension equilibration) ([3]; 2-PrOH with ~2 mM L-ascorbic acid, 40 °C, 3 d): No change | Observation (suspension equilibration) ([3]; AcOH saturated with L-ascorbic acid, 50 °C, 1 d): No change | Observation (suspension equilibration) ([3]; AcOH saturated with L-ascorbic acid, 50 °C, 5 d): No change | Observation (suspension equilibration) ([3]; H2O, 5 °C, 6 d): No change | Observation (suspension equilibration) ([3]; MeCN saturated with L-ascorbic acid, 50 °C, 5 d): No change | Observation (suspension equilibration) ([3]; MeOH/formic acid 1:1, 50 °C, 2 h): No change | Observation (suspension equilibration) ([3]; PEG4500/EtOH 1:9 saturated with L-ascorbic acid, 50 °C, 7 d): No change | Observation (suspension equilibration) ([3]; THF with ~2 mM L-ascorbic acid, 40 °C, 3 d): No change | Observation (suspension equilibration) ([3]; formic acid/THF 1:3, 10-20 °C, 6 d): No change | Safety at highest dose-level administered (dogs): safe | Exposure of methylenetetrahydrofolate compared to Levoleucovorin ([4]; blood plasma): substantially greater | Peak plasma concentrations of methylenetetrahydrofolate compared to Levoleucovorin ([4]; blood plasma): substantially greater | Concentration of methylenetetrahydrofolate compared to Levoleucovorin ([4]; both tumor and adjacent mucosa): much higher | Concentration of tetrahydrofolate compared to Levoleucovorin ([4]; both tumor and adjacent mucosa): much higher | Decomposition temperature (TG-FTIR) [5]: above 210 °C | Safety for patients (patients): safe | X-ray pattern distinctive for crystal form Type 1 [6]: remained unchanged | Stability over a long period of time compared to (6R)-5,10-CH2-THF sulfate ([1]; comparison of Tables 13 and 14 with Example 3): much more stable | Safety at highest dose-level administered (rats): safe | X-ray pattern distinctive for crystal form Type 1 [7]: remained unchanged | Stability over a long period of time (conclusion from Table 12) [8]: highly stable
